Data published in US9700545B2 (Salix Pharmaceuticals, Ltd, priority 2008, dated 2017).

Legend:
Type in all cases: physicochemical
[1] = Vapor stress / vapor diffusion stressing of amorphous materials, form by XRPD; conditions: methanol and tetrahydrofuran, both with water as antisolvent
Description: (§1) Vapor stressing experiments were done on amorphous material from two preparations: lyophilization from p-dioxane:water 1:1 and crash precipitation from ethyl acetate with heptane. […] The majority of the stressed samples appeared as clear red solutions after 6 days. Those solutions were placed in vials of antisolvent for vapor diffusion. Dry and wet milling experiments were conducted on amorphous materials from the two preparations mentioned above. Amorphous materials were recovered from the dry milling experiments.

[2] = Automated moisture sorption/desorption (MB / DVS); conditions: for XRPD following DVS: line after DVS; for hygroscopicity: result in words; for form by XRPD after moisture sorption/desorption: sorption from 5% RH to 95% RH, desorption from 95% RH to 5% RH
Description: Based on the data, relative humidity stressing studies of the two amorphous materials at 40° C./75% RH are recommended. Moisture sorption/desorption data were collected on a VTI SGA-100 Vapor Sorption Analyzer. Sorption and desorption data were collected over a range of 5% to 95% relative humidity (RH) at 10% RH intervals under a nitrogen purge. Samples were not dried prior to analysis. Equilibrium criteria used for analysis were less than 0.0100% weight change in 5 minutes, with a maximum equilibration time of 3 hours if the weight criterion was not met. Data were not corrected for the initial moisture content of the samples. NaCl and PVP were used as calibration standards.

[3] = Milling experiments on amorphous materials, form by XRPD; conditions: 10 min. at 30 Hz, scraped sides
Description: as §1
A solid sample of rifaximin was charged to a milling container with a milling ball. […] Solids were scraped from the sides of the vial after each interval.

Row | SMILES | form obtained in vapor diffusion experiments [1] | wt loss upon equilibration at 5% RH ([2]; MB, Table 5, milled amorphous) | XRPD following DVS ([2]; Table 2, first sample block (lyophilization sample)) | XRPD following DVS ([2]; Table 2, second sample block (crash precipitation sample)) | weight gain under 95% RH ([2]; amorphous rifaximin made by milling, moisture balance) | hygroscopicity [2] | form by XRPD after moisture sorption/desorption [2] | form by XRPD after moisture sorption/desorption ([2]; listed as Amorphous) | form by XRPD after moisture sorption/desorption ([2]; listed as Rifaximin Amorphous) | XRPD Result after dry milling [3]
1 | CO[C@H]1/C=C/O[C@@]2(C)Oc3c(C)c(O)c4c(O)c(c5c(nc6cc(C)ccn65)c4c3C2=O)NC(=O)/C(C)=C\C=C\[C@H](C)[C@H](O)[C@@H](C)[C@@H](O)[C@@H](C)[C@H](OC(C)=O)[C@@H]1C [Amorphous rifaximin] | Form β | 0.7% wt loss upon equilibration | no peaks, possibly amorphous | no peaks, possibly amorphous | 11.6% | hygroscopic | amorphous | amorphous | amorphous | –
2 | CO[C@H]1/C=C/O[C@@]2(C)Oc3c(C)c(O)c4c(O)c(c5c(nc6cc(C)ccn65)c4c3C2=O)NC(=O)/C(C)=C\C=C\[C@H](C)[C@H](O)[C@@H](C)[C@@H](O)[C@@H](C)[C@H](OC(C)=O)[C@@H]1C [crash amorphous rifaximin] | – | – | – | – | – | moderately hygroscopic | Crystallization was not observed | – | – | amorphous
3 | CO[C@H]1/C=C/O[C@@]2(C)Oc3c(C)c(O)c4c(O)c(c5c(nc6cc(C)ccn65)c4c3C2=O)NC(=O)/C(C)=C\C=C\[C@H](C)[C@H](O)[C@@H](C)[C@@H](O)[C@@H](C)[C@H](OC(C)=O)[C@@H]1C [lyophilized amorphous rifaximin] | – | – | – | – | – | moderately hygroscopic | Crystallization was not observed | – | – | amorphous
4 | CO[C@H]1/C=C/O[C@@]2(C)Oc3c(C)c(O)c4c(O)c(c5c(nc6cc(C)ccn65)c4c3C2=O)NC(=O)/C(C)=C\C=C\[C@H](C)[C@H](O)[C@@H](C)[C@@H](O)[C@@H](C)[C@H](OC(C)=O)[C@@H]1C [α dry] | – | – | – | – | – | – | α dry | – | – | –
